# Earlier results in patent publication US20020077465A1, “ADAM polynucleotides, polypeptides, and antibodies” (priority 2000, published 2002).
# Where a SMILES comes first, the peptide text is derived from it. [ ]: non-standard residue; d: D form. The star is where a group is joined. 4Abz = Nc1ccc(C(=O)O)cc1; NHOH = ON*
# T1: MMP-1 (Homo sapiens, UniProt P03956)
# T1 sequence (P03956 100-469): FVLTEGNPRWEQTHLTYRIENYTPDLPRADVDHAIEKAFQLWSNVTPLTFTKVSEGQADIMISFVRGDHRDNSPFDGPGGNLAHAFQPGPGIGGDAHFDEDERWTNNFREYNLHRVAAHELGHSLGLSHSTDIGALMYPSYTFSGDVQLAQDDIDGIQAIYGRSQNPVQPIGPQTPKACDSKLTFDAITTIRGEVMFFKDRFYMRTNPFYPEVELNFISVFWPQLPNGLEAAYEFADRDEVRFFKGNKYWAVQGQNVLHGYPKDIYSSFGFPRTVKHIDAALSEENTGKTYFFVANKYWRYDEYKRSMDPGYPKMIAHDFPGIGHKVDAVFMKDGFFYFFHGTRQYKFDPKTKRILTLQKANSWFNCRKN
# B1: METH1 polypeptides: metalloprotease thrombospondin polypeptides encoded by the human METH1 gene (WO99/37660) (protein, UniProt Q9UHI8 253-967, looked up)
# A disintegrin and …: FVSSHRYVETMLVADQSMAEFHGSGLKHYLLTLFSVAARLYKHPSIRNSVSLVVVKILVIHDEQKGPEVTSNAALTLRNFCNWQKQHNPPSDRDAEHYDTAILFTRQDLCGSQTCDTLGMADVGTVCDPSRSCSVIEDDGLQAAFTTAHELGHVFNMPHDDAKQCASLNGVNQDSHMMASMLSNLDHSQPWSPCSAYMITSFLDNGHGECLMDKPQNPIQLPGDLPGTSYDANRQCQFTFGEDSKHCPDAASTCSTLWCTGTSGGVLVCQTKHFPWADGTSCGEGKWCINGKCVNKTDRKHFDTPFHGSWGMWGPWGDCSRTCGGGVQYTMRECDNPVPKNGGKYCEGKRVRYRSCNLEDCPDNNGKTFREEQCEAHNEFSKASFGSGPAVEWIPKYAGVSPKDRCKLICQAKGIGYFFVLQPKVVDGTPCSPDSTSVCVQGQCVKAGCDRIIDSKKKFDKCGVCGGNGSTCKKISGSVTSAKPGYHDIITIPTGATNIEVKQRNQRGSRNNGSFLAIKAADGTYILNGDYTLSTLEQDIMYKGVVLRYSGSSAALERIRSFSPLKEPLTIQVLTVGNALRPKIKYTYFVKKKKESFNAIPTFSAWVIEEWGECSKSCELGWQRRLVECRDINGQPASECAKEVKPASTRPCADHPCPQWQLGEWSSCSKTCGKGYKKRSLKCLSHDGGVLSHESCDPLKKPKHFIDFCTMAECS
# Tests used:
# [1] = system: protease inhibitor-resistant viruses
# [2] = system: viruses containing the K103N mutation
# MMP-9 = MMP-9 (Homo sapiens, UniProt P14780); settings: read-out: IC50 against MMP-9
# MMP-1 = target: T1, MMP-1; settings: read-out: IC50 against MMP-1
# MMP-3 = MMP-3 (Homo sapiens, UniProt P08254); settings: read-out: IC50 against MMP-3
# MMP-8 = MMP-8 (Homo sapiens, UniProt P22894); settings: read-out: IC50 against MMP-8
# [3] = system: lamivudine-resistant isolates; settings: a substantial proportion of lamivudine-resistant isolates
# M24 cells = settings: murine metastasis model
# [4] = system: human metastatic melanoma (M24 cells)
# angiogenesis = settings: both in vitro and in vivo
# MMP-3, sequence (P08254 100-477, species assumed): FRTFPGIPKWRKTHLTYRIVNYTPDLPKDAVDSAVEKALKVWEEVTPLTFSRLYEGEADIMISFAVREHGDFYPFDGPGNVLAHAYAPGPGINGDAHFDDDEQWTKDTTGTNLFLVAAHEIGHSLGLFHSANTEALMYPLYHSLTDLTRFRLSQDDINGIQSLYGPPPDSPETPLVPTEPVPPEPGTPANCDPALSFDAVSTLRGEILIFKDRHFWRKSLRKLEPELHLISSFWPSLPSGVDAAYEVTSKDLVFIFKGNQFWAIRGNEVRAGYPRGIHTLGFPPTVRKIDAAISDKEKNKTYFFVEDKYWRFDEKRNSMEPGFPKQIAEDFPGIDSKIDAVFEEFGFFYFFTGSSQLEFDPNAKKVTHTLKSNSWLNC
# MMP-8, sequence (P22894 101-467, species assumed): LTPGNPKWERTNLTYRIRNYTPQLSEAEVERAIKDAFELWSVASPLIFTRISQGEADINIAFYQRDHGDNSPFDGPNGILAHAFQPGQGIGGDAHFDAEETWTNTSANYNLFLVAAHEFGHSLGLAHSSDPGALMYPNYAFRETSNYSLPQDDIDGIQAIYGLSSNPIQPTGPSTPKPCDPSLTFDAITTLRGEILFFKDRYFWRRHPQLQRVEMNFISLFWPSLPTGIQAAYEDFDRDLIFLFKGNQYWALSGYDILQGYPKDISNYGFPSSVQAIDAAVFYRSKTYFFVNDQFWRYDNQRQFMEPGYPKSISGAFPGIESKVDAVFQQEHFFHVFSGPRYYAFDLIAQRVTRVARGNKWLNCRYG
# MMP-9, sequence (P14780 94-707, species assumed): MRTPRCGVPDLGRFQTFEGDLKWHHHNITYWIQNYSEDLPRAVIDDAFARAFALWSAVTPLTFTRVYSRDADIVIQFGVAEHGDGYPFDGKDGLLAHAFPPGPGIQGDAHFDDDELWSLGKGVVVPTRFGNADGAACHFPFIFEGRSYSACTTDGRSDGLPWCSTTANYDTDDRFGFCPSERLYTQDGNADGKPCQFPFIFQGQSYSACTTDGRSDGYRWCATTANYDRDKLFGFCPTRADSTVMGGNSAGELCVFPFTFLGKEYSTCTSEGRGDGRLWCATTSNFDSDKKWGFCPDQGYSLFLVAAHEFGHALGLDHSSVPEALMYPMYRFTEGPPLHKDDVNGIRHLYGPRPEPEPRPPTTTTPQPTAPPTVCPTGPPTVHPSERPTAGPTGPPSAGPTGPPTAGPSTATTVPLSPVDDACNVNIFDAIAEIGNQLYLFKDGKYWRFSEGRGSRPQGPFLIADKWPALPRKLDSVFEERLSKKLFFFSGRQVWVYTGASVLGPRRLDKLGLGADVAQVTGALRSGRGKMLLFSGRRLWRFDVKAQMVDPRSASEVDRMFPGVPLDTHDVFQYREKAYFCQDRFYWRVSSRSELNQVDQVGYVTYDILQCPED
molecule,measurement,setting,value
Cc1ccccc1CNC(=O)[C@H]1N(C(=O)[C@@H](O)[C@H](Cc2ccccc2)NC(=O)c2cccc(O)c2C)CSC1(C)C [AG-1776],in vitro activity against protease inhibitor-resistant viruses,[1],in vitro activity
"Nc1nc(=O)n([C@@H]2CS[C@H](CO)O2)cc1F [COVIRACIL, emtricitabine]",greater activity in vitro than lamivudine (3TC),"HIV; in vitro, relative to lamivudine (3TC)",3- to 10 fold
Nc1nc(=O)n([C@H]2C=C[C@@H](CO)O2)cc1F [D-D4FC],activity against AZT/3TC-resistant virus,AZT/3TC-resistant virus,activity against AZT/3TC-resistant virus
CC[C@H]1C(=O)Nc2ccc(F)cc2N1C(=O)OC(C)C [GW-420867X],activity against viruses containing the K103N mutation / K103N mutants,[2],active against K103N mutants
same,greater activity than HBY097,HIV; relative to HBY097,25 fold
CC(C)C[C@@H](NC(=O)[C@@H]1CCCN1C(=O)CNC(=O)c1ccc(N)cc1)C(=O)N[C@H](C)C(=O)NO [MMP inhibitor I] (H-[4Abz]GP[dL][dA]-{NHOH}),IC50,MMP-9,30 µM
same,IC50,MMP-1,1 µM
same,IC50,MMP-3,150 µM
same,IC50,MMP-8,1 µM
C[C@H](Sc1nc(N)cc(Cl)n1)c1cc2ccoc2cn1 [PNU-142721],activity against viruses containing the K103N mutation / K103N mutants,[2],active against K103N mutants
same,greater activity than its predecessor delavirdine,HIV; relative to delavirdine,20- to 50 fold
Nc1ccn([C@H]2CO[C@@H](CO)S2)c(=O)n1 [dOTC],activity against lamivudine-resistant isolates,[3],retains activity
contortrostatin,inhibition of lung colonization of M24 cells,M24 cells,inhibits
same,inhibition of M24 cell adhesion to laminin,[4]; laminin,not
same,"inhibition of M24 cell adhesion to type I collagen, vitronectin, and fibronectin","[4]; type I collagen, vitronectin, fibronectin",inhibit
B1,inhibition of angiogenesis,angiogenesis,potent inhibitors
